The results in this text go back to patent EP1487791B1, “A NOVEL ANTIFUNGAL MOLECULE 2-(3,4-DIMETHYL-2,5-DIHYDRO-1H-PYRROL-2-YL)- METHYLETHYL PENTANOATE” (priority 2002, dated 2003).

Assay type in all cases: cell-based
Data set [1] concerns A. flavus. The data set is described as follows: Disc diffusion assay. Conditions: Aspergillus flavus, 48 hrs, read-out: Diameter of zone of inhibition. The procedure: (§1) Pathogenic strains of fungi were obtained from the Mycology Department of Vallabhbhai Patel Chest Institute, Delhi. All the strains were grown on Sabouraud dextrose agar at 37°C. The conidia form these cultures were harvested and suspended in Sabouraud maltose broth. The number of conidia was counted using haemocytometer and their number in the suspension was adjusted to as per need of the experiment.
(§2) The disc diffusion test was performed as per described in the section of details of invention. Amphotericin B 1.25 µg/disc was used in assay as positive control standard drug. Additional discs impregnated with equivalent amount of solvent were also used in the assay as negative controls (Fig: 5). […] Table 2: Antifungal activity of compound by disc diffusion method
On the technique in general: Agar diffusion results depend on both activity and mobility in agar.

Data set [2] concerns A.niger. As to the kind of experiment: Disc diffusion assay. Conditions: 48 hrs. The procedure: as §1, §2
The subject of data set [3] is RAW cells. The procedure:
The in vitro toxicity of the active molecule was studied by MTT assay using RAW cells (Mossman, T., 1983, J. Immunol. Methods, 65, 55-63).
The stock culture of RAW cells was obtained from National Facility for Cell and Tissue Culture, Pune. Cells were maintained in RPMI - 1640 medium supplemented with glutamine (2.3 gm/L), fetal calf serum (10% v/v) and gentamycin (50.0 mg/L) at 37°C in Nuair IR Autoflow water Jacketed carbon dioxide incubator.
The stock solution of the compound was prepared by dissolving 2.5 mg of the purified compound in minimum amount of DMSO and then diluted with double distilled water to make the final volume 1.0-ml. The different concentrations ranging from 1250.0 µg/ml to 19.5 µg/ml were tested in the cytotoxicity assay.
The cells were harvested at the log phase of growth confluency from the flask. The homogeneous suspension of cells was prepared in 2.0 ml of culture medium. The number of cells in the suspension was counted using a hemocytometer and the cell suspension was diluted in such a way so as to obtain 5x10^7 viable cells per ml. The viability of the cells was checked with trypan blue dye exclusion test. The cytotoxicity assay was performed in 96 wells flat bottom tissue culture plates (Nunc Nunclon). The cells ([…]) in 100.0 µl volume were seeded into each well. The plate was incubated at 37 °C in atmosphere of 5% (v/v) CO2 for 8 h. The wells were examined microscopically for the formation of monolayer of the cells. Various concentrations ranging from 1250.0 µg/ml to 19.5 µg/ml of the compound PC-1 (metelatropinyl ester) were added to the monolayer of cells. In +ve control wells, a known cytotoxic protein obtained from A. fumigatus, was used. […] After lysis of the cells, the plates were read at 540 nm using plate reader (Spectra Max 190, Molecular Device).
The toxicity of the compound was expressed as percentage with respect to that obtained in -ve control sample. The percent cytotoxicity was calculated using the formula given below. % Cytotoxicity = (OD in-ve control-OD in the test)/(OD in-ve control) × 100 [formula] […]

For data set [4], the system named is A.fumigatus. As to the kind of experiment: Disc diffusion assay. The procedure:
as §1, §2
The potency of the compound was determined with the help of standard curve constructed using amphotericin B as standard drug against A.fumigatus. Standard curve was prepared according to method given in the Indian Pharmacopoeia. The corrected values of diameter of zone of inhibition along with lowest and highest values were determined. These values were plotted on semilog paper to prepare standard curve. The value of diameter of zone of inhibition obtained for compound was put into the standard curve and corresponding dose producing the effect equivalent to amphotericin B was determined to find out the potency of the compound (Fig: 6).

In data set [5] the test system is Aspergillus. As to the kind of experiment: Disc diffusion assay, overall result for Aspergillus. The note with it: concentration developing zone of inhibition of 6.0-mm diameter. The procedure:
as §1
The leftover residue was finally dissolved in methanol. Dried fractions were examined for their antifungal activity.
as §2

The structures appear in SMILES notation.

For orientation: zone of inhibition means the size of the clear area around the sample on an inoculated plate. Turning to `CCCCC(=O)OC(C)CC1NCC(C)=C1C` (stereo not shown) [PC-1, 2-(3,4-dimethyl-2,5-dihydro-1H-pyrrol-2-yl)-1-methylethyl pentanoate], the zone of inhibition at 5 µg/disc in data set [1] (5.0 µg/disc) is 6.15 mm; in data set [2] (Aspergillus niger, 5.0 µg/disc, read-out: Diameter of zone of inhibition), 6.4 mm; in data set [4] (Aspergillus fumigatus, 5.0 µg/disc, 48 hrs, read-out: Diameter of zone of inhibition), 6.25 mm. Also, the zone of inhibition at 10 µg/disc in data set [1] (10.0 µg/disc) worked out at 8.1 mm; in data set [2] (Aspergillus niger, 10.0 µg/disc, read-out: Diameter of zone of inhibition) it was 8.6 mm; in data set [4] (Aspergillus fumigatus, 10.0 µg/disc, 48 hrs, read-out: Diameter of zone of inhibition), 8.5 mm. For the same molecule, the zone of inhibition at 20 µg/disc in data set [1] (20.0 µg/disc) was determined as 9 mm; in data set [4] (Aspergillus fumigatus, 20.0 µg/disc, 48 hrs, read-out: Diameter of zone of inhibition) it was 9.25 mm. Besides, the “Diameter of zone of inhibition” value in data set [2] (5.0 µg/disc) was determined as 6.40 mm. Also, in data set [3], the “concentration completely non-toxic to the cells” value is “up to 312.5 µg/ml”. Also, the “CT50 (dose cytotoxic to 50% of the cells)” value in data set [3] (RAW cells, MTT, 12 h) was 889.2 µg/mL. For the same molecule, the “less cytotoxic than the standard antifungal drug such as Amphotericin B” value in data set [3] (comparison with Amphotericin B) is 57.8 times. In data set [4] (10 µg/disc of the compound, standard curve with amphotericin B), the “amount of amphotericin B producing an equivalent diameter of zone of inhibition” value is given as 2.67 µg. Moreover, the “less potent as compared to amphotericin B” value in data set [4] (disc diffusion standard curve) is reported as 3.74 time. Also, the MIC is reported as 5 µg/disc in data set [5] and 5.0 µg/disc in data set [5] (listed as novel antifungal lead molecule).
